We go through nine compounds from patent US8455214B2, “Methods for determining chemotherapeutic agents targeting alpha-glucan pathways and uses thereof” (priority 2009, dated 2013).

For orientation: Km means the concentration of substrate that gives half-maximal velocity.

For test [1], the system named is M. smegmatis ΔglgE mutant. Put plainly: Sensitivity of the M. smegmatis ΔglgE mutant toward mono- and disaccharides (growth on Middlebrook 7H10 agar). It is filed as cell-based. The conditions noted are these: for growth of the mutant: glucose disaccharides. The source says: FIG. 2A-2F. Characterization of the M. smegmatis ΔglgE mutant. […] (B). Trehalose sensitivity of the ΔglgE mutant. […] (D) Trehalose sensitivity of the ΔglgB mutant. (E) M1P accumulation in the ΔglgE and ΔglgB mutants determined by TLC/autoradiography analysis of extracts from cells labeled with 14C-trehalose for the indicated time intervals. (F) Maltose accumulation in Δpep2 mutant strains determined by TLC/autoradiography analysis of cell extracts from cells labeled with 14C-trehalose for 30 min. In (B) and (D), equal dilutions of cultures were spotted onto Middlebrook 7H10 agar plates containing trehalose. Comp. refers to mutants complemented with the respective WT genes.
The sensitivity was highly specific, since growth of the mutant was not inhibited by other glucose disaccharides like maltose or α,β-trehalose [α-D-glucopyranosyl-(1→1)-β-D-glucopyranoside].

In test [2] the target is Mtb GlgE (Mycobacterium tuberculosis, UniProt P9WQ17). The test is classed as biochemical. The following applies: for Km: read-out: Km^app.
Chain of Mtb GlgE (P9WQ17 whole entry): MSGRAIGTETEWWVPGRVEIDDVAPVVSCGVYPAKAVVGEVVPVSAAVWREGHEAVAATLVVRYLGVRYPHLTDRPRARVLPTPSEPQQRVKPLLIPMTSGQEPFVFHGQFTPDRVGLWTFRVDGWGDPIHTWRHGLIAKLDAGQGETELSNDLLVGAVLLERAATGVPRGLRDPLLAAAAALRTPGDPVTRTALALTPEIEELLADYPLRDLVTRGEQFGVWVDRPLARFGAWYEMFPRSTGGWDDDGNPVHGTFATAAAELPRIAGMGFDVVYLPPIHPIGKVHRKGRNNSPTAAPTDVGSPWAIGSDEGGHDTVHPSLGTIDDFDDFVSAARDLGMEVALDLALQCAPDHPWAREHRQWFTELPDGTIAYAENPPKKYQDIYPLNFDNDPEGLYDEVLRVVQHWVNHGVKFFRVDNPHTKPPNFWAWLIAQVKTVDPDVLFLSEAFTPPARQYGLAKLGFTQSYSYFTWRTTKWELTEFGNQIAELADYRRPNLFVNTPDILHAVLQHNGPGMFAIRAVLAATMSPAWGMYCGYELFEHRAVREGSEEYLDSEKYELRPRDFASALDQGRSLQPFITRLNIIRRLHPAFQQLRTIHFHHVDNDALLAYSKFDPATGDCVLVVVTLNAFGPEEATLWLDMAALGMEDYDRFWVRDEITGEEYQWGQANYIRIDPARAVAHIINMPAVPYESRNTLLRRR
Test [3] deals with Mtb ΔtreS ΔglgE (pMV361::treS). It is filed as cell-based, Mycobacterium tuberculosis. The conditions noted are these: in the presence of 5 mM VA; TLC.
Test [4] has as its system trehalose synthase TreS. The conditions noted are these: reference 13; cited from earlier work.
The test system of test [5] is Mtb WT. The test is classed as cell-based, Mycobacterium tuberculosis.
In test [6] the test system is Mtb. The conditions noted are these: reference 14; cited from earlier work.
Test [7] concerns M. smegmatis ΔglgB mutant. It is filed as cell-based. The conditions noted are these: to a somewhat smaller extent than ΔglgE.
[8] abbreviates: donor M1P with 1 mM maltohexaose.
Where [9] appears, read: acceptor maltohexaose with 1 mM M1P.

Read-outs that look alike come from different tables or passages of the source.

Consider `OC[C@H]1O[C@H](O[C@H]2[C@H](O)[C@@H](O)C(O)O[C@@H]2CO)[C@H](O)[C@@H](O)[C@@H]1O` (mixture of isomers) [maltose], for which the “growth of the mutant” value in test [1] was “not inhibited”.

As for `O=P(O)(O)O[C@H]1O[C@H](CO)[C@@H](O[C@H]2O[C@H](CO)[C@@H](O)[C@H](O)[C@H]2O)[C@H](O)[C@H]1O` [M1P, α-D-glucopyranosyl(1→4)-α-D-glucopyranosyl 1-phosphate], in test [2] (setting [8]), the “kcat^app” value worked out at 1.26 ± 0.07 s⁻¹ and the Km came to 0.25 ± 0.05 mM.

For the compound `OCC1=C[C@@H](N[C@H]2C[C@H](CO)[C@@H](O[C@H]3O[C@@H](CO)[C@H](O)[C@@H](O)[C@@H]3O)[C@H](O)[C@H]2O)[C@H](O)[C@@H](O)[C@@H]1O` [VA, Validamycin A], the M1P accumulation result in test [3] is recorded as “only low levels”. Besides, the “inhibition of TreS” value in test [4] is recorded as “inhibit”. For the same compound, the “tolerated concentration of the inhibitor” value in test [5] stood at 10 mM.

Consider `O=P(O)(O)O` [inorganic phosphate], for which the “phosphate converted to M1P” value in test [2] is reported as roughly 10%. Further, the Km in test [2] (inorganic phosphate, reverse reaction, estimated) was 6 ± 4 mM.

In the case of `NNC(=O)c1ccncc1` [isoniazid], the “1 mg/l expressed as multiple of the MIC” value in test [6] is reported as 20 times the MIC.

With `OC[C@H]1O[C@H](O[C@H]2O[C@H](CO)[C@@H](O)[C@H](O)[C@H]2O)[C@H](O)[C@@H](O)[C@@H]1O` [trehalose, α-D-glucopyranosyl-(1→1)-α-D-glucopyranoside], in test [1], the “concentration that completely inhibited growth” value is recorded as 0.5 mM and the “growth of the mutant” value is listed as “bacteriostatic growth arrest”. Besides, the “sensitivity of the mutant” value in test [7] is listed as “sensitive”.

As to `OC[C@H]1O[C@@H](O[C@H]2O[C@H](CO)[C@@H](O)[C@H](O)[C@H]2O)[C@H](O)[C@@H](O)[C@@H]1O` [α,β-trehalose, α-D-glucopyranosyl-(1→1)-β-D-glucopyranoside], in test [1], the “growth of the mutant” value is “not inhibited”.

On to `O=P(O)(O)OC1OC(CO)C(OC2OC(CO)C(O)C(O)C2O)C(O)C1O` (stereo not drawn) [β anomer of M1P], for which, in test [2], the “GlgE activity as donor” value is recorded as “no activity”.

Take maltohexaose: the “kcat^app” value in test [2] (setting [9]) came to 7.5 ± 0.4 s⁻¹; in test [2] (acceptor maltohexaose with 5 mM M1P) it was 15.4 ± 1.1 s⁻¹. Besides, the Km amounted to 13.3 ± 2.4 mM in test [2] (setting [9]) and 35 ± 8 mM in test [2] (acceptor maltohexaose with 5 mM M1P, pH 7.0, 37° C).
